Experimental data reported in patent US20240217960A1, “TRIAZINE DERIVATIVE AS COVALENT INHIBITORS OF PI3K” (UNIVERSITÄT BASEL, priority 2021, published 2024).
In brackets after ≈: the same amount, converted by molar mass.

How the values were obtained:
[1] = Intrinsic reactivity of the inhibitors (kchem) with βME measured with HPLC; format: physicochemical; settings: 1 mM inhibitor + 600 mM βME, n = 3
PBS solubility = format: physicochemical; settings: aqueous buffer, pH 7.4, 3 independent measurements
Experimental LogD = format: physicochemical; settings: pH 7.4; 3 independent measurements
p110α (PI3Kα) = p110α (PI3Kα) (Homo sapiens, UniProt P42336); experiment: Determination of kinetic constants (kinact, Ki) for p110α by LanthaScreen Technology; format: binding; settings: for Ki: dissociation constant of the first reversible binding, read-out: Ki PI3Kα; for Ki / kinact: global fitting with KinTek; for kinact: maximum potential rate of covalent bond formation, read-out: kinact PI3Kα; for kinact/KI: read-out: kinact/Ki PI3Kα
p110α (PI3Kα), sequence (P42336 whole entry): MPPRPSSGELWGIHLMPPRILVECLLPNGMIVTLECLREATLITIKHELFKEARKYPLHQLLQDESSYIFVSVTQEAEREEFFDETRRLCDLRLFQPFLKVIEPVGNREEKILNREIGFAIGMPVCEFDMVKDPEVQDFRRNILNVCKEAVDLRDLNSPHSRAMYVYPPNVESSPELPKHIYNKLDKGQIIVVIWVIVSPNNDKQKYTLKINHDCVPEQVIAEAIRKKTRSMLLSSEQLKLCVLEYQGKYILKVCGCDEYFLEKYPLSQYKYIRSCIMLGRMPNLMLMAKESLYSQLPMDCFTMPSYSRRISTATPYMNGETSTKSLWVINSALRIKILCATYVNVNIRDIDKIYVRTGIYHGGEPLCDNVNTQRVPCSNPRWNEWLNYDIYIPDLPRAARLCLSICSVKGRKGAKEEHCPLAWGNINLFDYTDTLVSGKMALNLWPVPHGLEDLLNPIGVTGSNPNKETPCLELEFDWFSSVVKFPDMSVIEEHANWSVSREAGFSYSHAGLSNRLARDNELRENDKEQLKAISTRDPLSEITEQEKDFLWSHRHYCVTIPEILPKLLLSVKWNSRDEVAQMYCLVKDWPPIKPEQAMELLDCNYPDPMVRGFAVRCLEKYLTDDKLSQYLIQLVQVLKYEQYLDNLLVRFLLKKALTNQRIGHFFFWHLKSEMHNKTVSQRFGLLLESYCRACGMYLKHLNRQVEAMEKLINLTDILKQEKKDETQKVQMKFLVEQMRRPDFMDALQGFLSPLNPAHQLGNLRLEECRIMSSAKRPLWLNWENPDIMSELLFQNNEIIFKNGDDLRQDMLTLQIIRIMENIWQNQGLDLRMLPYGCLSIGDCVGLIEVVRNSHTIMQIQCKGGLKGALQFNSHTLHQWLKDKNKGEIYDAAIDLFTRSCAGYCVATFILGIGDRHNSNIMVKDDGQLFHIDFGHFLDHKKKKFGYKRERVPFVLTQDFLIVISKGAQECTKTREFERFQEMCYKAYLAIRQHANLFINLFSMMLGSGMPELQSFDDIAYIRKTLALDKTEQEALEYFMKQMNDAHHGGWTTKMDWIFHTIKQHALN
p110α (PI3Kα), sequence (P27986 whole entry partner): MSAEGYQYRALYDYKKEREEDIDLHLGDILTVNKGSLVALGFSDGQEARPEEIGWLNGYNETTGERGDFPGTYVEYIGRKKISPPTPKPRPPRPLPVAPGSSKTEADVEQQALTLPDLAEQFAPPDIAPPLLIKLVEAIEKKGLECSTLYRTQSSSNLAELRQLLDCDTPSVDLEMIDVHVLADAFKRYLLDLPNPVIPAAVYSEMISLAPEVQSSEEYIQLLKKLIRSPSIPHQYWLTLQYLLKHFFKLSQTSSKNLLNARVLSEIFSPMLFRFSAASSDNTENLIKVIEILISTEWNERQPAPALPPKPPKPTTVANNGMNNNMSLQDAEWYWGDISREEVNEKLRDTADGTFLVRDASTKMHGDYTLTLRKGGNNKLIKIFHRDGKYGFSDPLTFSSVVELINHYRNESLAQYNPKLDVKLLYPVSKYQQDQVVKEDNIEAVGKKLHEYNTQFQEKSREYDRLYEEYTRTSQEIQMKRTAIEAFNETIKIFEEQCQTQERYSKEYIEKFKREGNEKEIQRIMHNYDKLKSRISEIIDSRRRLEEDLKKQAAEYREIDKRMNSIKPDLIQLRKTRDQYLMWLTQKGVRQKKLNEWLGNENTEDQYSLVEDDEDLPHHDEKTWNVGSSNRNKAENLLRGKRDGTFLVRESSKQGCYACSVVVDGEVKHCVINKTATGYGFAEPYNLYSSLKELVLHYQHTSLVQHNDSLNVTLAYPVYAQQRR
Experimental: Maximum potential rate of covalent bond formation (kinact) and dissociation constant of the first reversible binding (Ki) of compounds for p110α were determined by LanthaScreen Technology (Life Technologies). The calculation of kinetic parameters was carried out through global fitting for numerical integration by using KinTek Global Kinetic Explorer modelling software^26-31.

[2] = test system: pSer473 of PKB/Akt in SKOV3 cells; experiment: In Cell Western cellular PI3K signaling and IC50 determination; format: cell-based; settings: Homo sapiens, SK-OV-3; SKOV3 cells; 2 or 3 independent measurements; read-out: IC50 pPKB (S473) SKOV3
Experimental: Protein phosphorylation was detected as follows: pSer473 of PKB/Akt with rabbit polyclonal antibody from Cell Signaling Technology (CST) (#4058) by In-Cell Western assays, where 1.2×10^4 SKOV3 cells/well in 96-well plates were plated (Cell Carrier, PerkinElmer) for 24 hours (37° C., 5% CO2), as described in Ref. ^25.

SMILES: CC(C)=CC(=O)CCC(=O)N1CCN(Cc2cc3nc(-c4cccc5[nH]ncc45)nc(N4CCOCC4)c3s2)CC1 [CNX-1351, 1-[4-[[2-(1H-indazol-4-yl)-4-(4-morpholinyl)thieno[3,2-d]pyrimidin-6-yl]methyl]-1-piperazinyl]-6-methyl-5-heptene-1,4-dione, reference compound]
- kchem (intrinsic reactivity of the inhibitors) [1]: 0.000222 M⁻¹ s⁻¹
- solubility (PBS solubility): 10 µM (≈ 5.74 µg/mL)
- logD (Experimental LogD): 3.96

SMILES: C=CC(=O)N1CCC(CCCC(=O)N2CCN(c3nc(-c4cnc(N)nc4C(F)F)nc(N4CCOCC4)n3)CC2)CC1 [Compound 41, 4-(1-acryloylpiperidin-4-yl)-1-(4-(4-(2-amino-4-(difluoromethyl)pyrimidin-5-yl)-6-morpholino-1,3,5-triazin-2-yl)piperazin-1-yl)butan-1-one]
- kchem (intrinsic reactivity of the inhibitors) [1]: 0.000225 M⁻¹ s⁻¹
- solubility (PBS solubility): 243 µM (≈ 146 µg/mL)
- logD (Experimental LogD): 2.67

SMILES: C=CC(=O)N1CCC(C(=O)NCCC(=O)N2CCN(c3nc(-c4cnc(N)nc4C(F)F)nc(N4CCOCC4)n3)CC2)CC1 [Compound 48, 1-acryloyl-N-(3-(4-(4-(2-amino-4-(difluoromethyl)pyrimidin-5-yl)-6-morpholino-1,3,5-triazin-2-yl)piperazin-1-yl)-3-oxopropyl)piperidine-4-carboxamide]
- Ki (p110α (PI3Kα)): 14.1 nM
- kinact (p110α (PI3Kα)): 0.000253 s⁻¹
- kinact/KI (p110α (PI3Kα)): 18000 M⁻¹ s⁻¹
- kchem (intrinsic reactivity of the inhibitors) [1]: 0.000452 M⁻¹ s⁻¹
- IC50 [2]: 664 nM

SMILES: C=CC(=O)N1CCC(C(=O)NCCCC(=O)N2CCN(c3nc(-c4cnc(N)nc4C(F)F)nc(N4CCOCC4)n3)CC2)CC1 [Compound 51, 1-acryloyl-N-(4-(4-(4-(2-amino-4-(difluoromethyl)pyrimidin-5-yl)-6-morpholino-1,3,5-triazin-2-yl)piperazin-1-yl)-4-oxobutyl)piperidine-4-carboxamide]
- Ki (p110α (PI3Kα)): 10.7 nM
- kinact (p110α (PI3Kα)): 0.000195 s⁻¹
- kinact/KI (p110α (PI3Kα)): 18800 M⁻¹ s⁻¹
- kchem (intrinsic reactivity of the inhibitors) [1]: 0.000437 M⁻¹ s⁻¹
- IC50 [2]: 686 nM

SMILES: C=CC(=O)N1CCC(C(=O)N(C)CCC(=O)N2CCN(c3nc(-c4cnc(N)nc4C(F)F)nc(N4CCOCC4)n3)CC2)CC1 [Compound 57, 1-acryloyl-N-(3-(4-(4-(2-amino-4-(difluoromethyl)pyrimidin-5-yl)-6-morpholino-1,3,5-triazin-2-yl)piperazin-1-yl)-3-oxopropyl)-N-methylpiperidine-4-carboxamide]
- Ki (p110α (PI3Kα)): 14.6 nM
- kinact (p110α (PI3Kα)): 0.000378 s⁻¹
- kinact/KI (p110α (PI3Kα)): 26100 M⁻¹ s⁻¹
- kchem (intrinsic reactivity of the inhibitors) [1]: 0.000388 M⁻¹ s⁻¹
- IC50 [2]: 250 nM

SMILES: CN(C)C/C=C/C(=O)N1CCC(C(=O)N(C)CCC(=O)N2CCN(c3nc(-c4cnc(N)nc4C(F)F)nc(N4CCOCC4)n3)CC2)CC1 [Compound 58, (E)-N-(3-(4-(4-(2-amino-4-(difluoromethyl)pyrimidin-5-yl)-6-morpholino-1,3,5-triazin-2-yl)piperazin-1-yl)-3-oxopropyl)-1-(4-(dimethylamino)but-2-enoyl)-N-methylpiperidine-4-carboxamide]
- Ki (p110α (PI3Kα)): 12.2 nM
- kinact (p110α (PI3Kα)): 0.000406 s⁻¹
- kinact/KI (p110α (PI3Kα)): 33600 M⁻¹ s⁻¹
- kchem (intrinsic reactivity of the inhibitors) [1]: 0.000386 M⁻¹ s⁻¹
- IC50 [2]: 260 nM

SMILES: C=CC(=O)N1CCC(COCC(=O)N2CCN(c3nc(-c4cnc(N)nc4C(F)F)nc(N4CCOCC4)n3)CC2)CC1 [Compound 61, 1-(4-((2-(4-(4-(2-amino-4-(difluoromethyl)pyrimidin-5-yl)-6-morpholino-1,3,5-triazin-2-yl)piperazin-1-yl)-2-oxoethoxy)methyl)piperidin-1-yl)prop-2-en-1-one]
- kchem (intrinsic reactivity of the inhibitors) [1]: 0.00029 M⁻¹ s⁻¹
- solubility (PBS solubility): 381 µM (≈ 230 µg/mL)
- logD (Experimental LogD): 1.7

SMILES: C=CC(=O)N1CCC(C(=O)NCCN2CCN(c3nc(-c4cnc(N)nc4C(F)F)nc(N4CCOCC4)n3)CC2)CC1 [Compound 62, 1-acryloyl-N-(2-(4-(4-(2-amino-4-(difluoromethyl)pyrimidin-5-yl)-6-morpholino-1,3,5-triazin-2-yl)piperazin-1-yl)ethyl)piperidine-4-carboxamide]
- Ki (p110α (PI3Kα)): 16.2 nM
- kinact (p110α (PI3Kα)): 0.000187 s⁻¹
- kinact/KI (p110α (PI3Kα)): 11600 M⁻¹ s⁻¹
- kchem (intrinsic reactivity of the inhibitors) [1]: 0.000518 M⁻¹ s⁻¹
- solubility (PBS solubility): 393 µM (≈ 236 µg/mL)
- logD (Experimental LogD): 1.4
- IC50 [2]: 82 nM

SMILES: C=CC(=O)N1CCC(Cc2ccc(C(=O)N3CCN(c4nc(-c5cnc(N)nc5C(F)F)nc(N5CCOCC5)n4)CC3)cc2)CC1 [Compound 100, 1-(4-(4-(4-(4-(2-amino-4-(difluoromethyl)pyrimidin-5-yl)-6-morpholino-1,3,5-triazin-2-yl)piperazine-1-carbonyl)benzyl)piperidin-1-yl)prop-2-en-1-one]
- Ki (p110α (PI3Kα)): 9.11 nM
- kinact (p110α (PI3Kα)): 0.000123 s⁻¹
- kinact/KI (p110α (PI3Kα)): 13700 M⁻¹ s⁻¹
- kchem (intrinsic reactivity of the inhibitors) [1]: 0.000324 M⁻¹ s⁻¹
- IC50 [2]: 56 nM

SMILES: C=CC(=O)N1CCC(Cc2cccc(C(=O)N3CCN(c4nc(-c5cnc(N)nc5C(F)F)nc(N5CCOCC5)n4)CC3)c2)CC1 [Compound 101, 1-(4-(3-(4-(4-(2-amino-4-(difluoromethyl)pyrimidin-5-yl)-6-morpholino-1,3,5-triazin-2-yl)piperazine-1-carbonyl)benzyl)piperidin-1-yl)prop-2-en-1-one]
- Ki (p110α (PI3Kα)): 10.5 nM
- kinact (p110α (PI3Kα)): 0.00015 s⁻¹
- kinact/KI (p110α (PI3Kα)): 14300 M⁻¹ s⁻¹
- kchem (intrinsic reactivity of the inhibitors) [1]: 0.00029 M⁻¹ s⁻¹
- solubility (PBS solubility): 46 µM (≈ 29.8 µg/mL)
- logD (Experimental LogD): 2.66
- IC50 [2]: 43 nM
